# Measurements as given in patent US5563149A, “Aqueous solutions of pyridone carboxylic acids” (Cheil Foods & Chemicals, Inc., priority 1994, dated 1996).
# Columns and labels:
# [1] = test system: gram-negative and gram-positive bacteria; assay: in vitro antibacterial activity (gram-negative and gram-positive bacteria); format: cell-based
# [2] = bioavailability and half-life; format: in vivo; details: compared with quinolone drugs commercially available or in development
# [3] = solubility in water (without solubilizing agent); format: physicochemical; details: no acid added
# [4] = Solubility of compound A in water with added acid or amino acid, and pH of the saturated solution; format: physicochemical; details: for solubility at 4 h: water, per ml of water
# Experimental: The organic acids suitable as solubilizing agents are chosen depending on the correlationship between the organic acid and the physical properties of the selected quinolone compound. Therefore, a varity of organic acids and amino acids were evaluated to determine whether certain acids are suitable as solubilizing agents capable of increasing the water solubility of compound A and the pH of the aqueous solution is suitable for injection and/or infusion solutions.
# Exemplary active substance in practicing the present invention is compound A. The test method of the solubility is set forth as follows:
# Compound A was mixed with an organic acid or an amino acid in the mole ratios between 0.5 and 6 before water was added with reflux. Then, the resulting solution was rigorously shaken with stirring for 5 minutes so that it was made homogeneous. After the homogenous solution was left to stand at elevated temperature for 4 hours, it was extracted through 0.45 micro of membrane filter. The amounts of active substances present in extracts were quantified by high pressure liquid chromatography.
# [5] = with asparagine, glutamic acid or gluconic acid; Korean Patent Application Publication No. 89-2040; cited from earlier work
compound,measurement,setting,value
"C[C@]12C[C@@H](N)[C@H]1CN(c1nc3c(cc1F)c(=O)c(C(=O)O)cn3C1CC1)C2 (relative stereo) [compound A, 1-cyclopropyl-6-fluoro-l,4-dihydro-4-oxo-7-([1α, 5α,6β]6-amino-1-methyl-3-azabicyclo[3.2.0]heptan-3-yl)-1,8-naphtyridine-3-carboxylic acid]",antibacterial activities compared with Lomefloxacin and Ofloxacin,[1],superior
same,bioavailability,[2],better
same,half-life,[2],better
same,solubility in water,[3],not substantially soluble or little soluble in water
same,pH of saturated solution,[4]; compound A with Alanine,6.4
same,pH of saturated solution,[4]; compound A with Arginine,10.0
same,pH of saturated solution,[4]; compound A with Asparagine,6.2
same,pH of saturated solution,[4]; compound A with Aspartic acid,5.3
same,pH of saturated solution,[4]; compound A with Cinnamic acid,1.8
same,pH of saturated solution,[4]; compound A with Galacturonic (acid),3.3
same,pH of saturated solution,[4]; compound A with Gluconic acid,3.3
same,pH of saturated solution,[4]; compound A with Gluconic acid lactone,3.6
same,pH of saturated solution,[4]; compound A with Glutamine,6.4
same,pH of saturated solution,[4]; compound A with Glutaric acid,3.8
same,pH of saturated solution,[4]; compound A with Histidine,7.6
same,pH of saturated solution,[4]; compound A with Hydrochloric acid,2.0
same,pH of saturated solution,[4]; compound A with Isoleucine,6.4
same,pH of saturated solution,[4]; compound A with L-cysteine,6.2
same,pH of saturated solution,[4]; compound A with L-valine,6.4
same,pH of saturated solution,[4]; compound A with Malic acid,3.4
same,pH of saturated solution,[4]; compound A with Methionine,6.4
same,pH of saturated solution,[4]; compound A with Oxalic acid,4.2
same,pH of saturated solution,[4]; compound A with Succinic acid,4.0
same,pH of saturated solution,[4]; compound A with Threonine,6.3
same,solubility at 4 h,[4]; with Alanine,1300 µg/mL
same,solubility at 4 h,[4]; with Arginine,8200 µg/mL
same,solubility at 4 h,[4]; with Asparagine,2100 µg/mL
same,solubility at 4 h,[4]; with Aspartic acid,37600 µg/mL
same,solubility at 4 h,[4]; with Cinnamic acid,2100 µg/mL
same,solubility at 4 h,[4]; with Galacturonic (acid),18300 µg/mL
same,solubility at 4 h,[4]; with Gluconic acid lactone,28100 µg/mL
same,solubility at 4 h,[4]; with Gluconic acid,33400 µg/mL
same,solubility at 4 h,[4]; with Glutamine,1600 µg/mL
same,solubility at 4 h,[4]; with Glutaric acid,12100 µg/mL
same,solubility at 4 h,[4]; with Histidine,2100 µg/mL
same,solubility at 4 h,[4]; with Hydrochloric acid,44300 µg/mL
same,solubility at 4 h,[4]; with Isoleucine,1400 µg/mL
same,solubility at 4 h,[4]; with L-cysteine,2300 µg/mL
same,solubility at 4 h,[4]; with L-valine,1300 µg/mL
same,solubility at 4 h,[4]; with Malic acid,48700 µg/mL
same,solubility at 4 h,[4]; with Methionine,1500 µg/mL
same,solubility at 4 h,[4]; with Oxalic acid,3500 µg/mL
same,solubility at 4 h,[4]; with Succinic acid,47600 µg/mL
same,solubility at 4 h,[4]; with Threonine,1500 µg/mL
same,solubility of compound A / pH of the resulting solution (in words),"[4]; with glutaric acid, cinnamic acid, galacturonic acid, glutamine, isoleusine, threonine, histidine, L-cysteine, alanine, arginine, L-valine, methionine or oxaline",did not substantilly improve the solubility of compound A or the pH of the resulting solution is unsuitable as injection and/or infusion solutions
CCn1cc(C(=O)O)c(=O)c2cc(F)c(N3CCNCC3)nc21 [Enoxacin],deposits in solutions,[5],do not lead to deposits
